Measurements: ChEMBL document CHEMBL4888484, “Replenishing the malaria drug discovery pipeline: Screening and hit evaluation of the MMV Hit Generation Library 1 (HGL1) against asexual blood stage Plasmodium falciparum ,using a nano luciferase reporter read-out” (2022)

Legend:
[1] = system: Plasmodium falciparum; assay: Hit confirmation in dose-response curve in Dd2 pLDH assay, at 72h; type: functional, organism-based; set-up: timepoint 72 hour; conditions: Dd2, Erythrocyte
[2] = system: Plasmodium falciparum; assay: Hit confirmation in dose-response curve in NF54 pLDH assay, at 72h; type: functional, organism-based; set-up: timepoint 72 hour; conditions: NF54, Erythrocyte
[3] = Hit confirmation in dose-response curve in HepG2 cytotoxicity assay, at 72h; type: toxicity, cell-based; set-up: timepoint 72 hour; conditions: human, HepG2 cells
[4] = system: Plasmodium falciparum; assay: Hit confirmation in dose-response curve in NF54 nanoGlo assay, at 72h; type: functional, organism-based, Erythrocyte; set-up: timepoint 72 hour; conditions: Plasmodium falciparum, NF54, Erythrocyte, 72 h
[5] = system: Plasmodium falciparum; assay: Hit confirmation in dose-response curve in NF54 nanoGlo assay, at 12h; type: functional, organism-based, Erythrocyte; set-up: timepoint 12 hour; conditions: Plasmodium falciparum, NF54, Erythrocyte, 12 h

IC50 [1] [µM] | IC50 [2] [µM] | IC50 [4] [µM] | IC50 [5] [µM] | SMILES | IC50 at 72 h [3] [µM]
6.92 | 4.07 | 2.09 | > 10 | Cc1ccc(OCC(=O)Nc2cc(C)nn2-c2nc3c(cnn3-c3ccc(C)c(C)c3)c(=O)[nH]2)cc1 | > 10
5.01 | > 10 | 1.1 | > 10 | Cc1cc(=O)[nH]c(-n2nc(C3CC3)cc2NC(=O)C(C)(C)Oc2ccc(Cl)cc2)n1 | > 10
5.37 | 5.62 | 1.91 | > 10 | COc1ccc2c(c1)[n+](CC(=O)c1ccc(-c3ccc(Br)cc3)cc1)c(CO)n2C | > 10
4.68 | 6.92 | 1.86 | 3.09 | CCOc1cc(C(c2c(C)n(C)n(-c3ccccc3)c2=O)c2c(C)n(C)n(-c3ccccc3)c2=O)ccc1OCc1ccccc1 | > 10
2.75 | 2.57 | 1.02 | 1.51 | CCC(C)NCC(O)Cn1c(-c2ccccc2)c(-c2ccccc2)c2cc(C)ccc21 (stereo not given) | > 10
2.95 | 4.47 | 2.88 | 6.03 | COc1cc(CNCCCN2CCOCC2)ccc1OCc1ccc(Cl)cc1 | > 10
> 10 | > 10 | > 10 | > 10 | Cn1nccc1/C=C1\CC2C3CCc4cc(O)ccc4C3CCC2(C)C1O (stereo not given) | > 10
4.27 | 6.17 | 1.29 | 2.69 | COc1ccc(Nc2nnc(-c3ccc(NC(=O)C(=O)NCCCn4ccnc4)cc3)s2)cc1 | > 10
0.525 | 0.603 | 0.575 | > 10 | Clc1ccc(C[n+]2ccc(-c3nc4ccccc4o3)cc2)c(Cl)c1 | > 10
1 | 0.759 | 0.832 | > 10 | CCOc1ccc(-[n+]2cc(-c3ccccc3)n3c2CCC3)cc1 | > 10
7.94 | > 10 | 8.32 | > 10 | COc1ccc(OC)c(NC(=O)CN2CCc3[nH]c4ccc(F)cc4c(=O)c3C2)c1 | > 10
> 10 | > 10 | 6.61 | 3.89 | COc1ccc(-n2ncc3c(N)c4c(nc32)CCCC4=O)cc1 | > 10
> 10 | > 10 | 6.61 | 2 | Brc1cccc(-c2ccc(-c3cc(-c4ccccc4)nnc3-c3ccccc3)o2)c1 | > 10
> 10 | 8.32 | 6.17 | > 10 | COc1cccc(-c2nn(-c3nc(-c4ccccc4)cc(C(F)(F)F)n3)c(-c3cccc(OC)c3)c2Cl)c1 | > 10
2.82 | 6.46 | 0.708 | > 10 | CC(C)c1cc(=O)[nH]c(-n2nc(C3CC3)cc2NC(=O)c2ccc(F)cc2)n1 | 10
8.91 | > 10 | 4.68 | 6.17 | COCCCn1c(NS(=O)(=O)c2ccccc2)c(S(=O)(=O)c2ccc(C)cc2)c2nc3ccccc3nc21 | > 10
2.19 | 2.4 | 1.66 | 2.82 | CC(C)CC[C@@H](CCNC1CCN(C)CC1)c1ccc(Cl)cc1 | > 10
2.09 | 2 | 0.589 | > 10 | CCOc1ccc2ccccc2c1C(=O)Nc1cc(C)nn1-c1nc2c(c(=O)[nH]1)CCC2 | > 10
2.24 | 2.57 | 1.51 | 2.45 | CN1CCC(NCC[C@@H](Cc2ccccc2Cl)c2ccc(Cl)cc2)CC1 | > 10
> 10 | > 10 | 9.12 | > 10 | O=C(CCn1c(=O)[nH]c2ccsc2c1=O)NCc1ccccc1 | > 10
4.27 | 4.79 | 2.82 | 3.02 | O=C(Nc1onc2c1CCC2)c1ccc2ccccc2c1 | 4.07
3.09 | 2.14 | 0.955 | 8.32 | Cc1cc(=O)[nH]c(-n2nc(C3CC3)cc2NC(=O)C(c2ccccc2)c2ccccc2)n1 | 7.59
0.0871 | 0.166 | 0.0871 | 7.41 | CC1=CC(=[N+](CCO)CCO)C=C/C1=C(\c1ccc(N(CCO)CCO)cc1C)c1ccccc1Cl | > 10
5.25 | > 10 | 4.27 | 7.59 | COc1cc2ncc3c(-c4ccc(C)c(C)c4)n[nH]c3c2cc1OC | > 10

IC50 [1] [µM] | IC50 [2] [µM] | IC50 [4] [µM] | IC50 [5] [µM] | SMILES | IC50 at 72 h [3] [µM]
8.32 | 7.24 | 2.45 | 3.8 | CCC1=Nc2ccccc2N=C(NC(=O)C(C)C)[C@H]1c1ccc(F)cc1 | > 10
3.02 | 5.13 | 2.14 | > 10 | COc1ccc(C(=O)CN2C=CCC=C2c2nc(-c3ccc(Cl)cc3)cs2)cc1 | > 10
8.91 | 9.33 | 1.62 | > 10 | CC(C)c1cc(=O)[nH]c(-n2nc(C3CC3)cc2NC(=O)COc2ccc3ccccc3c2)n1 | > 10
> 10 | > 10 | 1.1 | 0.407 | Cc1c(-c2nn(-c3nc(C4CC4)cc(C(F)(F)F)n3)c(-c3cnn(C)c3C)c2Cl)cnn1C | > 10
2.24 | 3.8 | 2.57 | > 10 | C[N+]1(CCCC(=O)c2ccc3c(c2)OCCO3)CCC(c2ccccc2)C1 (stereo not given) | > 10
> 10 | > 10 | 8.13 | 10.5 | c1ccc(-c2cn3c(n2)c(-c2ccc4ccccc4n2)cc2ccccc23)cc1 | > 10
1 | 1.35 | 0.302 | > 10 | N#Cc1c(NC(=O)Nc2cn3ccccc3c2C#N)cn2ccccc12 | > 10
4.07 | > 10 | 1.51 | 1.74 | COc1ccc(-c2cc(C(F)(F)F)nc(-n3nc(-c4cccc(OC)c4)c(Cl)c3-c3cccc(OC)c3)n2)cc1 | > 10
8.91 | 2.14 | 2.45 | > 10 | FC(F)Oc1ccc(-c2c[n+](-c3cccc(C(F)(F)F)c3)c3n2CCCCC3)cc1 | > 10
6.92 | 7.41 | 2.63 | 5.5 | Cc1ccc(N2C(=O)c3ccccc3[C@@H]2c2c[nH]c3ccccc23)cc1 | > 10
> 10 | 9.55 | 4.57 | 6.61 | CCc1c2c(=O)n(-c3nc4ccccc4s3)[nH]c2cc(=O)n1CCCN1CCOCC1 | > 10
> 10 | 10 | 2.34 | 3.24 | Cc1ccc(S(=O)(=O)Nc2cc3nc4ccccc4nc3n2CCc2ccccc2)cc1 | > 10
3.55 | 3.47 | 2.63 | 5.89 | O=C(CN1C=CCC=C1c1nc(-c2ccc(Br)cc2)cs1)c1ccccc1 | > 10
8.13 | > 10 | 1.78 | > 10 | COc1ccc(Cl)cc1C(=O)Nc1cc(C2CC2)nn1-c1nc(C)cc(=O)[nH]1 | > 10
8.51 | 9.77 | 2 | 3.16 | Cc1c(C)n(CC(O)CNC(C)c2ccccc2)c2c(Cl)cccc12 (stereo not given) | 10
> 10 | > 10 | 1.86 | > 10 | Cc1cc(=O)[nH]c(-n2nc(C3CC3)cc2NC(=O)c2ccc(C(C)(C)C)cc2)n1 | > 10
7.94 | 9.12 | 1.62 | 1.95 | CC(NCC(O)Cn1c(-c2ccccc2)c(-c2ccccc2)c2ccc3ccccc3c21)c1ccccc1 (stereo not given) | > 10
4.37 | 4.37 | 1.95 | 2.95 | COc1ccc(C)c2sc(N(CCCn3ccnc3)C(=O)Cc3ccc(F)cc3)nc12 | > 10
2.57 | 2.95 | 2.19 | 5.75 | CC(C)(C)[C@H]1CCc2c(sc(NC(=O)C3(F)C(F)(F)C(F)(F)C(F)(F)C(F)(F)C3(F)F)c2C#N)C1 | 4.57
> 10 | > 10 | 4.47 | 1.7 | COc1ccc(NC(=O)C2(N(Cc3ccccc3)C(=O)Cn3nnc4ccccc43)CCCCC2)cc1 | > 10
3.16 | 2.82 | 1.7 | 2.75 | CNCCc1c(-c2ccccc2)[nH]n(-c2ccccc2)c1=O | > 10
3.02 | 6.31 | 1.66 | 2.88 | COc1ccc(-c2c(C(F)(F)F)n[nH]c2-c2ccc(OCc3ccccc3F)cc2O)cc1 | > 10
3.63 | > 10 | 2.19 | 6.76 | Cc1cc(C)n(-c2nc(Nc3ccc(Cl)cc3)nc(Nc3ccc(Cl)cc3)n2)n1 | > 10

SMILES | IC50 [1] [µM] | IC50 [2] [µM] | IC50 [4] [µM] | IC50 [5] [µM] | IC50 at 72 h [3] [µM]
CCCC[C@H](Oc1ccc(C(C)(C)CC)cc1C(C)(C)CC)C(=O)Nc1ccc(NC(=O)C(F)(F)C(F)(F)C(F)(F)F)c(O)c1 | 3.72 | > 10 | 2.95 | 7.24 | > 10
